From article PMC4949444 (Scientific Reports, 2016)

Test system: STHdh^Q111/Q111
Test: Serum deprivation survival of STHdh Q111/Q111 striatal neuroblasts (MTT)
Assay type: cell-based, mouse
Details: STHdh Q111/Q111, 72 h
Description: Figure 4 In vitro neuroprotective action of VCE-003.2. (a) HiB5 cells were treated with quinolinic acid (QA; 2,5 mM) in the presence or the absence of VCE-003.2 (50 and 250 nM) and cell viability was determined after 24 h by the MTT assay. (b) QA-induced apoptosis measured by cleaved caspase 3 immunostaining (upper panel) of differentiating HiB5 cells was quantified in the presence or absence of VCE-003.2 (250 nM). Cell counts were referred to total cell nuclei counterstained with DAPI and c-caspase3^+ cell quantification is shown in the lower panel. […]. (d) Aggregation of mut-Htt was assessed by fluorescence microscopy in immortalized striatal STHdh transfected cells with a CFP-tagged expression vector of mutant huntingtin (mut-Htt) and counterstained with fluorescent phalloidin (upper panel). […]. Results are representative of three independent experiments. Values are expressed as means ± S. D. *p < 0.05 and ***p < 0.001 vs. Vehicle; ^#p < 0.05 ^##p < 0.01 vs. QA. […]
The HiB5 hippocampal progenitor cell line (kindly provided by Prof. Z. Kokaia, Lund Stem Cell Center, Sweden) was grown as described[46] in DMEM supplemented with 2 mM glutamine, 1% penicillin/streptomycin and 10% (v/v) fetal calf serum (FCS; Lonza, Switzerland). […] Cell viability was determined after 24 h using the 3-[4,5-dimethylthiazol-2-yl]-2,5-diphenyltetrazolium bromide (MTT) tesresults int. […]

CCCCCC1=C(NCC)C(=O)C(C/C=C(\C)CCC=C(C)C)=C(O)C1=O [VCE-003.2]
neuronal viability after serum deprivation: improved
